Measured values taken from ChEMBL document CHEMBL1156460, “Lumazine synthase from Candida albicans as an anti-fungal target enzyme: structural and biochemical basis for drug design” (J Biol Chem, 2007).

Test system: Candida albicans
Test: Binding affinity to Candida albicans lumazine synthase

Ka [M⁻¹]	SMILES
6.61e+06	O=c1[nH]c(Cl)c(CCCCOP(=O)(O)O)c(=O)[nH]1
3.53e+06	O=c1[nH]c(=O)c2c([nH]1)n(C[C@H](O)[C@H](O)[C@H](O)CO)c(=O)n2CCCOP(=O)(O)O
758000	O=c1[nH]c(=O)c2[nH]c(=O)n(C[C@H](O)[C@H](O)[C@H](O)CO)c2[nH]1
1.63e+06	O=c1[nH]c(=O)c2c([nH]1)n(C[C@H](O)[C@H](O)[C@H](O)CO)c(=O)c(=O)n2CCCCOP(=O)(O)O
